Laboratory results from patent publication US6686382B2, “Sulfonamides and derivatives thereof that modulate the activity of endothelin” (Encysive Pharmaceuticals Inc., priority 1999, dated 2004).

How the values were obtained:
human ETA receptors = biological target: T1, human ETA receptors (Homo sapiens, UniProt P25101); experiment: Endothelin binding inhibition, Binding Test #1: inhibition of binding to ETA receptors (TE 671 cell membranes); settings: relative to N-(4-chloro-3-methyl-5-isoxazolyl)-2-{[3,4-(methylenedioxy)-6-methylphenyl)acetyl]-thiophene-3-sulfonamide (= 1.0)
T1 construct: endogenous in cells; host or cells: TE 671 cells (ATCC HTB 139), membrane preparation
T1 sequence (P25101 21-427): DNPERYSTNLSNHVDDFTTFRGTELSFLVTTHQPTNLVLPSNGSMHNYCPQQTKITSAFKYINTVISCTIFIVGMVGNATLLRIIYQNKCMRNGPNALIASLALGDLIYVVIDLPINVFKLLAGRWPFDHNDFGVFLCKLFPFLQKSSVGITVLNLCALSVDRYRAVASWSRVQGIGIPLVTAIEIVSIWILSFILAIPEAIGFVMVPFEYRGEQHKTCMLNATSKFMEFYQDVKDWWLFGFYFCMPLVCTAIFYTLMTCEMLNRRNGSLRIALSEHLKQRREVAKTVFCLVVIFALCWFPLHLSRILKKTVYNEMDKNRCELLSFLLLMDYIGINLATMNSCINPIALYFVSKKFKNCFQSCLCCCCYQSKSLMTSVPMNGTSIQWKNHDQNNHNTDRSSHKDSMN
Excerpt: Compounds that are potential endothelin antagonists are identified by testing their ability to compete with ^125I-labeled ET-1 for binding to human ETA receptors or ETB receptors present on isolated cell membranes. The effectiveness of the test compound as an antagonist or agonist of the biological tissue response of endothelin can also be assessed by measuring the effect on endothelin induced contraction of isolated rat thoracic aortic rings. The ability of the compounds to act as antagonists or agonists for ETB receptors can be assess by testing the ability of the compounds are to inhibit endothelin-1 induced prostacyclin release from cultured bovine aortic endothelial cells.
A. Endothelin Binding Inhibition—Binding Test #1: Inhibition of Binding to ETA Receptors
TE 671 cells (ATCC Accession No. HTB 139) express ETA receptors. These cells were grown to confluence in T-175 flasks. Cells from multiple flasks were collected by scraping, pooled and centrifugedfor 10 min at 190×g. The cells were resuspended in phosphate buffered saline (PBS) containing 10 mM EDTA using a Tenbroeck homogenizer. The suspension was centrifuged at 4° C. at 57,800×g for 15 min, the pellet was resuspended in 5 ml of buffer A (5 mM HEPES buffer, pH 7.4 containing aprotinin (100 KIU/ml)) and then frozen and thawed once. 5 ml of Buffer B (5 mM HEPES Buffer, pH 7.4 containing 10 mM MnCl2 and 0.001% deoxyribonuclease Type 1) was added, the suspension mixed by inversion and then incubated at 37° C. for 30 minutes. The mixture was centrifuged at 57,800×g as described above, the pellet washed twice with buffer A and then resuspended in buffer C (30 mM HEPES buffer, pH 7.4 containing aprotinin (100 KIU/ml) to give a final protein concentration of 2 mg/ml and stored at −70° C. until use.
The membrane suspension was diluted with binding buffer (30 mM HEPES buffer, pH 7.4 containing 150 mM NaCl, 5 mM MgCl2, 0.5% Bacitracin) to a concentration of 8 μg/50 μl. ^125I-endothelin-1 (3,000 cpm, […]) was added to 50 μL of either: (A) endothelin-1 (for non specific binding) to give a final concentration 80 nM); (B) binding buffer (for total binding); or (C) a test compound (final concentration 1 nM to 100 μM). The membrane suspension (50 μL), containing up to 8 μg of membrane protein, was added to each of (A), (B), or (C). Mixtures were shaken, and incubated at 4° C. for 16-18 hours, and then centrifuged at 4° C. for 25 min at 2,500×g. Alternatively, the incubation was conducted at 24° C. […] This, must be kept in mind when comparing IC50 concentrations among compounds provided herein.
The supernatant, containing unbound radioactivity, was decanted and the pellet counted on a Genesys multiwell gamma counter. The degree of inhibition of binding (D) was calculated according to the following equation: [formula]
Each test was generally performed in triplicate.

CYP3A4 = biological target: T2, CYP3A4 (Homo sapiens, UniProt P08684); experiment: Cytochrome P450 enzyme assay, CYP3A4 (Gentest Supersomes, fluorometric); format: in vitro ADME; settings: human recombinant enzyme, mean IC50; read-out: CP450 3A4 IC50
T2 construct: purchased Gentest Corporation P202
Description: In vitro assays to determine the concentration of the compounds provided herein required for 50% inhibition of substrate metabolism (IC50) by different human cytochrome P450 enzymes (2C9, 2C19, 3A4) were conducted using human recombinant cytochrome P450 enzyme assays, developed by Gentest Corporation. These assays contain Gentest Supersomes™ (specific human cytochrome P450 enzyme, co-expressed with P450 reductase and cytochrome b5), a NADPH regenerating system, substrate and a concentration range of the compounds provided herein. The fluorescent product was the measured end point for these assays. IC50s were calculated using a four-parameter logistic equation with the bottom fixed at 0% inhibition and the top fixed at 100% inhibition. (Values are the mean IC50±SD when n is greater than 1.)
Assays were conducted in 96-well microtiter plates using fluorometric assays developed by Gentest Corporation. The 12 wells in each row were used for one inhibition curve. Wells 1 to 8 contained serial 1:3 dilutions of the test compound. Wells 9 to 12 contained no inhibitor and wells 11 and 12 were blanks for background fluorescence (stop solution was added before the enzyme). All concentration curves were performed in duplicate. Incubations were initiated by the addition of enzyme and substrate to the pre-warmed reaction mixture. After a specific incubation period, the reaction was stopped by the addition of stop solution. Metabolite production per well was determined by measuring fluorescence using a fluorescent plate reader. Detailed experimental procedures for each enzyme are listed below. See, generally, Methodology of a high throughput method for measuring cytochrome P450 inhibition (Gentest Corporation, Technical Bulletin); Crespi, C. L.; Miller, V. P.; and Penman, B. W. (1997) Anal. Biochem. 248:188-190; and Geungerich, F. P. (1997) Adv. Pharm. 43:7-35.
A 0.2 ml/well reaction mixture containing 4 pmol CYP3A4 (P202), 1.3 mM NADP^+, 3.3 mM glucose-6-phosphate, 3.3 mM magnesium chloride 0.4 U/ml glucose-6-phosphate dehydrogenase, 0.01% pluronic F68, and 50 μM resorufin benzyl ether in 200 mM potassium phosphate (pH 7.4), was incubated at 37° C. for 30 minutes. Ketoconazole, a standard inhibitor of 3A4, was serially diluted from the highest concentration of 5 μM and acted as a positive control. […] After incubation, the reaction was stopped by the addition of 75 μl stop solution (80% acetonitrile/20% 0.5 M Tris base) and fluorescence/well was measured within 1 hour using a Spectra Fluor (Tecan) fluorescent plate reader. […]
The “% inhibition” was calculated as follows: [formula]
Concentration versus % inhibition curves were constructed in Prism (GraphPad, Inc.). The data was analyzed using “Top & Bottom Fixed” routine. […]

T2 sequence (P08684 2-503 limits assumed): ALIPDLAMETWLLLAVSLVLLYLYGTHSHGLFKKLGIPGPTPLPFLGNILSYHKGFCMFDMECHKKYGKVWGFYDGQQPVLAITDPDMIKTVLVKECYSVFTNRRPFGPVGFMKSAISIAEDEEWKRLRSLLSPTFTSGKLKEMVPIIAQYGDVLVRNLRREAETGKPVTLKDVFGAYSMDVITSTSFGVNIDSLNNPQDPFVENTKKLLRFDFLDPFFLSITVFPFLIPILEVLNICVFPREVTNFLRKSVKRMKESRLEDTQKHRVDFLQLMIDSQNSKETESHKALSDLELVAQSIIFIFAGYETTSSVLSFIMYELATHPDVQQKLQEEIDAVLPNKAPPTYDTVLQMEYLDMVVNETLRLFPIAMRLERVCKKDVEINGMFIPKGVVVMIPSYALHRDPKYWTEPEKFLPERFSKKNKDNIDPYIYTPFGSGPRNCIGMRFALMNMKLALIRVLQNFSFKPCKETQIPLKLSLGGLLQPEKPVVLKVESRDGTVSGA

## CC(=O)c1cc(C)cc(C)c1NC(=O)c1sccc1S(=O)(=O)Nc1onc(C)c1C [Compound 7, N-(2-acetyl-4,6-dimethylphenyl)-3-{[(3,4 dimethyl-5-isoxazolyl)amino]sulfonyl}-2-thiophenecarboxamide]
Human ETA receptors
  ETA ACTIVITY (ETA antagonist activity relative to reference compound): 18.1
CYP3A4
  IC50: 28 µM

## Cc1cc(C)c(NC(=O)c2sccc2S(=O)(=O)Nc2onc(C)c2Cl)c(S(C)(=O)=O)c1 [Compound 42, 3-{[(4-chloro-3-methyl-5-isoxazolyl)amino]sulfonyl)-N-[2,4-dimethyl-6-(methylsulfonyl)phenyl]-2-thiophenecarboxamide]
Human ETA receptors
  ETA ACTIVITY (ETA antagonist activity relative to reference compound): 64.1
CYP3A4
  IC50: 13.7 µM

## Cc1cc(C)c(NC(=O)c2sccc2S(=O)(=O)Nc2onc(C)c2Cl)c(Cl)c1 [Compound 34, N-(2-chloro-4,6-dimethylphenyl)-3-{[(4-chloro-3-methyl-5-isoxazolyl)amino]sulfonyl}2-thiophenecarboxamide]
Human ETA receptors
  ETA ACTIVITY (ETA antagonist activity relative to reference compound): 20.7
CYP3A4
  IC50: 3.86 µM

## Cc1cc2c(cc1CC(=O)c1sccc1S(=O)(=O)Nc1onc(C)c1Cl)OCO2 [N-(4-chloro-3-methyl-5-isoxazolyl)-2-{[3,4-(methylenedioxy)-6-methylphenyl)acetyl]-thiophene-3-sulfonamide, reference compound]
Human ETA receptors
  ETA ACTIVITY (ETA antagonist activity relative to reference compound): 1.0
CYP3A4
  IC50: 0.09 µM
